Active and inactive are the calls of the source. How the calls were made is not given here.
Biological target: Serine/threonine-protein kinase mTOR (Homo sapiens) (UniProt P42345)
Assay: binders of mTOR FRB domain, biophysical, NMR (AID 1648)
Conditions: NMR binding to FRB domain, chemical shift

Sequence of Serine/threonine-protein kinase mTOR (Homo sapiens) (P42345 2015-2114): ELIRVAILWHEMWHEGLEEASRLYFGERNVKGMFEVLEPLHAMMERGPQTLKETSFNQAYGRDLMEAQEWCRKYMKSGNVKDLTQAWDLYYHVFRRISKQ

COc1c2occc2cc2ccc(=O)oc12
Kd: > 4 mM (inactive)

Cc1ccc(C)n1-c1ccc(C(=O)N2CCOCC2)cc1
Kd: > 4 mM (inactive)

CCOCC(=O)N1CCc2ccccc21
Kd: > 4 mM (inactive)

CC(C)=CC(=O)Nc1ccc2c(c1)OCO2
Kd: > 4 mM (inactive)

OCCOc1ccc(C2=NCCO2)cc1
Kd: > 4 mM (inactive)

Cc1cc2cc3c(C)cc(=O)oc3c(C)c2o1
Kd: > 4 mM (inactive)

CNC(=O)N1CCN(C(=O)NC)CC1
Kd: > 4 mM (inactive)

NC12CC3CC(C1)CC(CC(=O)O)(C3)C2
Kd: > 4 mM (inactive)

Cc1n[nH]c(=O)c2ncn(C)c12
Kd: > 4 mM (inactive)

CN1C(=O)C2CC=C(Cl)CC2C1=O (configuration not stated)
Kd: > 4 mM (inactive)

COC(=O)c1cc2ccccc2cn1
Kd: > 4 mM (inactive)

CC1(NC(=O)NCc2ccccc2)CCS(=O)(=O)C1 (configuration not stated)
Kd: > 4 mM (inactive)

CC(C)(OC(=O)c1ccccc1)[C@@H]1Cc2cc3ccc(=O)oc3cc2O1
Kd: > 4 mM (inactive)

C=CC(C1=CC(=O)C(OC)=CC1=O)c1ccc(O)cc1 (configuration not stated)
Kd: > 4 mM (inactive)

CC1(C)NC(=O)N(CCOc2ccc3c(c2)CCC3)C1=O
Kd: > 4 mM (inactive)

CC12CN3CC(C)(CN(C1)C3c1cccs1)C2O (configuration not stated)
Kd: > 4 mM (inactive)

Cc1occc1C(=O)Nc1nnc(-c2ccncc2)s1
Kd: > 4 mM (inactive)

CCC(C)C(=O)O[C@H]1[C@H](O)C2C(CN3CC(C)CCC3[C@@]2(C)O)C2C[C@]34O[C@]5(O)C(OC(=O)C(C)(O)CC)CC[C@@]3(C)C5C(OC(C)=O)[C@@H](OC(C)=O)C4[C@@]21O (some centres not stated)
Kd: > 4 mM (inactive)

O=C(Nc1cnccn1)c1cccs1
Kd: > 4 mM (inactive)

O=C(/C=C/c1ccccc1)c1ccc(O[C@@H]2O[C@H](CO)[C@@H](O)[C@H](O)[C@H]2O)cc1O
Kd: > 4 mM (inactive)

CC(C)=CC1C(C(=O)O)C1(C)C (configuration not stated)
Kd: > 4 mM (inactive)

Nc1cccnc1N1CCOCC1
Kd: > 4 mM (inactive)

NC1=NC(=O)/C(=C/c2ccc(O)c(Cl)c2)S1
Kd: > 4 mM (inactive)

O=C(O)CC1Sc2ccccc2NC1=O (configuration not stated)
Kd: > 4 mM (inactive)

CCn1c(=O)cc(N2CCC3(CC2)OCCO3)[nH]c1=O
Kd: > 4 mM (inactive)

CN(C)c1nc(N)nc(-c2nc3ccccc3s2)n1
Kd: > 4 mM (inactive)

CC(=O)c1c(C)nc(C)nc1NC(=O)C(C)C
Kd: > 4 mM (inactive)

CC(=O)/C=C\[C@@H]1[C@@]2(C)CCCC(C)(C)C2CC[C@@]1(C)O (some centres not stated)
Kd: > 4 mM (inactive)

CC1=NN(c2ccc(C)cc2)C(=O)C1
Kd: > 4 mM (inactive)

Brc1cccc(-c2nnco2)c1
Kd: > 4 mM (inactive)

NC(C(=O)O)C(O)C(=O)O (configuration not stated)
Kd: > 4 mM (inactive)

O=C(O)c1ccc2snnc2c1
Kd: > 4 mM (inactive)

COc1ccccc1CNc1nc2nc(C)cc(=O)n2[nH]1
Kd: > 4 mM (inactive)

Cc1cc(NS(=O)(=O)Cc2ccccc2)no1
Kd: > 4 mM (inactive)

COc1ccc([C@@H](C)C(=O)c2ccc(O)cc2O)cc1
Kd: > 4 mM (inactive)

Cc1cc(C(=O)NCc2cccnc2)no1
Kd: > 4 mM (inactive)

COc1cc(C(=S)N2CCC(C(N)=O)CC2)ccc1O
Kd: > 4 mM (inactive)

Cc1ccc(C(=O)Nc2c[nH]c(=O)[nH]c2=O)cc1
Kd: > 4 mM (inactive)

Cc1ccc(-c2c(C)n([O-])c3c([n+]2=O)CCCC3)o1
Kd: > 4 mM (inactive)

CC1CCCN(C/C(O)=C(\C#N)c2nc3ccccc3[nH]2)C1 (configuration not stated)
Kd: > 4 mM (inactive)

O=C1C2CCCCC2C(=O)N1Cc1cccnc1 (configuration not stated)
Kd: > 4 mM (inactive)

Cc1cccc(CO)n1
Kd: > 4 mM (inactive)

Clc1ccc2c(N3CCNCC3)ccnc2c1
Kd: > 4 mM (inactive)

Nc1ccccc1C(=O)CC(N)C(=O)O (configuration not stated)
Kd: > 4 mM (inactive)

COc1ccc(Cl)cc1NC(=O)c1ccco1
Kd: > 4 mM (inactive)

NC(=O)CSc1nc2ncnc(N)c2[nH]1
Kd: > 4 mM (inactive)

c1cncc(C(N2CCOCC2)N2CCOCC2)c1
Kd: > 4 mM (inactive)

O=c1[nH]cc(NCc2ccccc2)c(=O)[nH]1
Kd: > 4 mM (inactive)

Oc1ccc(C2SCCS2)cc1
Kd: > 4 mM (inactive)

CCOC(=O)c1ccc(F)c(F)c1
Kd: > 4 mM (inactive)

C=CCSc1[nH]c(=O)cc(C)c1C(N)=O
Kd: > 4 mM (inactive)

CCCCCC1C(=O)CCC1CC(=O)OC (configuration not stated)
Kd: > 4 mM (inactive)

COc1ccc(N/C(N)=N\c2nc(C)cc(C)n2)cc1
Kd: > 4 mM (inactive)

NC1=NC(=O)/C(=C/c2cccc([N+](=O)[O-])c2)S1
Kd: > 4 mM (inactive)

Oc1cccc2[nH]ccc12
Kd: > 4 mM (inactive)

COc1cccc(NC(=O)c2cccs2)c1
Kd: > 4 mM (inactive)

CCP(=O)(CC)c1cccc(C)c1
Kd: > 4 mM (inactive)

O=S(=O)(NCc1ccco1)c1cccc2cccnc12
Kd: > 4 mM (inactive)

CC(=O)CNc1cc(CNC(C)=O)c(C)cc1C
Kd: > 4 mM (inactive)

CC1CC[C@]2(NC1)O[C@H]1CC3C4CC[C@H]5C[C@@H](O)CC[C@]5(C)C4CC[C@]3(C)[C@H]1[C@@H]2C (some centres not stated)
Kd: > 4 mM (inactive)

Cc1nc2ccc(NC(=O)N3CCOCC3)cc2s1
Kd: > 4 mM (inactive)

Cc1[nH]c2ccccc2c1C(=O)CSc1ncn[nH]1
Kd: > 4 mM (inactive)

O=C(c1ccc(Cl)s1)N1CCOCC1
Kd: > 4 mM (inactive)

Cn1nc(C(=O)Nc2cccnc2)cc1Cl
Kd: > 4 mM (inactive)

CC(=O)Oc1ccc(N2C(=O)C3C4C=CC(O4)C3C2=O)cc1 (configuration not stated)
Kd: > 4 mM (inactive)

CNC(C)[C@H](O)c1ccccc1 (some centres not stated)
Kd: > 4 mM (inactive)

Cc1cc(C)n2c(SCc3cccs3)nnc2n1
Kd: > 4 mM (inactive)

O=c1c2ccccc2nc2n1CCCCN2
Kd: > 4 mM (inactive)

O=C1CCC(=O)N1c1ccc(O)cc1
Kd: > 4 mM (inactive)

CN1CC(=O)N=C1N
Kd: > 4 mM (inactive)

O=c1n(-c2cccc(Cl)c2)c(=O)n2n1CCC2
Kd: > 4 mM (inactive)

Nc1nc2n(c1C(=O)c1ccccc1)CCC2
Kd: > 4 mM (inactive)

CNC(=O)COc1cccc2c1CCNC2=O
Kd: > 4 mM (inactive)

O=C1c2ccccc2C(=O)N1CCc1ccccn1
Kd: > 4 mM (inactive)

O=C(O)c1scc2c1CCCC2
Kd: > 4 mM (inactive)

O=C(CC1SC(=O)NC1=O)Nc1ccccc1 (configuration not stated)
Kd: > 4 mM (inactive)

Cc1ccccc1C(=O)Nn1cnnc1
Kd: > 4 mM (inactive)

O=C(O)c1ccc(N2CCCCC2)cc1
Kd: > 4 mM (inactive)

COC(=O)Nc1ccc2ncn(C)c(=O)c2c1
Kd: > 4 mM (inactive)

COc1cc(C)c2c(c1C=O)Oc1c(c(C)c(O)c3c1C(O)OC3=O)OC2=O (configuration not stated)
Kd: > 4 mM (inactive)

C=C1C2CC[C@@]3(C)[C@H](c4ccoc4)OC(=O)C[C@]13O[C@H]1C[C@H](OC(C)=O)C(C)(C)[C@H](CC(=O)OC)[C@@]21C
Kd: > 4 mM (inactive)

O=C1C=CC(=O)c2c(O)cccc21
Kd: > 4 mM (inactive)

Cc1cc(C)c2nncn2n1
Kd: > 4 mM (inactive)

O=C1C2C3C=CC(O3)C2C(=O)N1c1ccccc1 (configuration not stated)
Kd: > 4 mM (inactive)

Nc1nc2ccccc2n1CCN1CCCC1
Kd: > 4 mM (inactive)

Cc1ccc(NC(=O)CN2C(=O)CSC2=O)cc1
Kd: > 4 mM (inactive)

CCC(=O)Nc1cc(C(C)C)c(O)cc1C
Kd: > 4 mM (inactive)
